Laboratory results as given in patent US9481796B2, “Method for producing nanoparticles” (M. Technique Co., Ltd., priority 2010, dated 2016).

Experiment: Volume-average particle diameter of benzbromarone nanoparticles (Nanotrac particle size distribution), Example 2-2
Format: physicochemical
Conditions: ethanol solution of 3% benzbromarone/0.1% Tween 80 into pure water
Experimental: Particle size distribution was measured by using a Nanotrac particle size distribution measurement instrument (UPA-EX150, manufactured by Nikkiso Co., Ltd.), and the volume-average particle diameter was taken. An ethanol solution in which benzbromarone and Tween 80 (dispersant) were dissolved with the concentrations thereof being 3% for benzbromarone and 0.1% for Tween 80 was introduced as a second fluid into between the processing surfaces 1 and 2 at a rate of 10 mL/minute, together with pure water as a first fluid from the center at supply pressure of 0.25 MPa, a rotation speed of 700 rpm, and a rate of 200 g/minute, whereby the two fluids were mixed. The dispersion solution of benzbromarone was discharged. Temperature conditions of the first fluid and the second fluid, and results of particle size distribution of the obtained dispersion solution are shown in Table 3. The particle diameters of nanoparticles obtained in respective conditions were confirmed by a transmission electron microscope (TEM); it was confirmed that the particle diameter confirmed by the TEM picture was identical to the measurement result of the particle size distribution. The SEM picture of the nanoparticles obtained under the temperature conditions of 25° C. for the first fluid and 25° C. for the second fluid (ΔT=0° C.) is shown in FIG. 17; and the TEM picture of the nanoparticles obtained under the temperature conditions of 5° C. for the first fluid and 35° C. for the second fluid (ΔT=30° C.) is shown in FIG. 18, respectively.

- Volume-average particle diameter (T1 5°C, T2 5°C, ΔT 0): 229.3 nm
- Volume-average particle diameter (T1 5°C, T2 8°C, ΔT 3): 204.6 nm
- Volume-average particle diameter (T1 5°C, T2 10°C, ΔT 5): 51.3 nm
- Volume-average particle diameter (T1 5°C, T2 35°C, ΔT 30): 58.6 nm
- Volume-average particle diameter (T1 25°C, T2 25°C, ΔT 0): 208.4 nm
SMILES: CCc1oc2ccccc2c1C(=O)c1cc(Br)c(O)c(Br)c1 [benzbromarone]
